US20250376473A1, “PRMTS INHIBITOR AND USE THEREOF” (Cytosinlab Therapeutics Co., Ltd., priority 2022, published 2025)
Where two headings read alike, the source gives them in different places.

Legend:
[1] = test system: HCT116 MTAP WT cells; assay: Proliferation inhibition of HCT116 cells in vitro (CellTiter Glo); format: cell-based; conditions: 6 days, 9 concentrations starting from 30 μM, read-out: Cell proliferation inhibition rate HCT116 MTAP WT IC50 (nm)
From the text: (§1) Biological Test Example 2 Proliferation Inhibition of HCT116 and HCT116 MTAP-KO Cells in Vitro
(§2) HCT116 cell line was purchased from the Chinese Academy of Sciences Cell Bank, and the MTAP gene was knocked out by CRISPR/Cas9 technology to obtain HCT116-MTAP-KO cell line.
(§3) McCoy's 5A medium (Gibco, catalog No. 16600082), fetal bovine serum (Gibco, catalog No. 10099141C), penicillin-streptomycin double antibody (Gibco, catalog No. 15140122), pancreatic enzyme (Gibco, catalog No. 25200056), CellTiter Glo assay kit (Promega, catalog No. G7572), 384-well transparent flat-bottomed black walled cell culture plate (Corning, catalog No. 3764), ultra micro sampler (Tecan, catalog No.D300e), Multimode reader (Biotek, catalog No. SynergyHTX)
(§4) 1. Cell culture: HCT116 and HCT116-MTAP-KO cells were cultured in McCoy'5A medium+10% fetal bovine serum+1% penicillin-streptomycin double antibody; to ensure that they were always in the logarithmic growth phase and the cell viability greater than 95%.
(§5) 2. Compound concentration gradient preparation: The compound to be tested was added to a 384-well plate using an ultra micro sampler, starting from 30 μM (HCT116 cells) or 3 μM (HCT116-MTAP-KO cells), and diluted with DMSO at 3 times for a total of 9 concentrations and set up three duplicate wells.
(§6) 3. Treatment of cells with compounds: Trypsin-digested HCT116 or HCT116-MTAP-KO cell suspension was added to the 384-well plates spotted with the compounds to be tested at 40 μL per well, i.e., 100 cells per well, and the final concentration of DMSO was 0.4%. The cell culture plate was incubated at 37° C. in a 5% CO2 incubator for 6 days.
(§7) 4. Detection: 20 μL of CellTiter Glo reagent was added to each well of the cell culture plate and incubated at room temperature for 30 minutes. A multimode reader was used to detect the luminescence signal at […].
(§8) The data was fitted with GraphPad Prism 8.0 software using a four parameter inhibitor-reaction model to obtain the IC50 value (half inhibitory concentration) of the test compounds.

[2] = test system: HCT116-MTAP-KO cells (HCT116 MTAP null); assay: Proliferation inhibition of HCT116 MTAP-KO cells in vitro (CellTiter Glo); format: cell-based; conditions: 6 days, 9 concentrations starting from 3 μM, read-out: Cell proliferation inhibition rate HCT116 MTAP null IC50 (nm)
From the text: as §1, §2, §3, §4, §5, §6, §7, §8

Compound	IC50 [1]	IC50 [2]	IC50 ([1]; Homo sapiens, HCT-116, 144 h)	IC50 ([2]; HCT116-MTAP null, 144 h)
Cc1ncc2c(N)nc3cc(F)c(C(=O)N(c4cnn(C)c4)C4COc5ccccc54)cc3n12 (stereo not drawn) [Example 125]	1000 to 10000 nM	< 100 nM	–	–
Cc1nn(C)cc1N(Cc1ccc(C(F)(F)F)nn1)C(=O)c1cc2c(cc1F)nc(N)c1cnc(C)n12 [Example 127]	–	–	1000 to 10000 nM	100 to 1000 nM
CCn1cc(N(Cc2ccc(C(F)(F)F)cn2)C(=O)c2cc3c(cc2F)nc(N)c2cnc(C)n23)c(C)n1 [Example 129]	–	–	1000 to 10000 nM	< 100 nM
COc1ccc(CN(C(=O)c2cc3c(cc2F)nc(N)c2cnc(C)n23)c2cn(C)nc2C)nn1 [Example 131]	–	–	1000 to 10000 nM	< 100 nM
Cc1ncc2c(N)nc3cc(F)c(C(=O)N(Cc4ccc(C(F)(F)F)cn4)c4cn(C)nc4CO)cc3n12 [Example 133]	–	–	1000 to 10000 nM	100 to 1000 nM
Cc1nn(C)cc1N(Cc1ccc(C(F)(F)F)cn1)C(=O)c1cc2c(cc1F)nc(N)c1c(C)ncn12 [Example 134]	–	–	< 100 nM	< 100 nM
CCOc1ccc(CN(C(=O)c2cc3c(cc2F)nc(N)c2cnc(C)n23)c2cn(C)nc2C)nc1 [Example 136]	–	–	1000 to 10000 nM	< 100 nM
COc1nn(C)cc1N(Cc1ccc(C(F)(F)F)cn1)C(=O)c1cc2c(cc1F)nc(N)c1cnc(C)n12 [Example 138]	–	–	1000 to 10000 nM	< 100 nM
Cc1ccc(N(Cc2ccc(C(F)(F)F)cn2)C(=O)c2cc3c(cc2F)nc(N)c2cnc(C)n23)cn1 [Example 139]	–	–	1000 to 10000 nM	< 100 nM
Cc1nn(C)cc1N(Cc1ncc(C(F)(F)F)cn1)C(=O)c1cc2c(cc1F)nc(N)c1cnc(C)n12 [Example 140]	–	–	1000 to 10000 nM	100 to 1000 nM
Cc1ncccc1N(Cc1ccc(C(F)(F)F)cn1)C(=O)c1cc2c(cc1F)nc(N)c1cnc(C)n12 [Example 143, 4-Amino-7-fluoro-1-methyl-N-(2-methylpyridin-3-yl)-N-(5-(trifluoromethyl)pyridin-2-ylmethyl)imidazolo[1,5-a]quinoxalin-8-carboxamide]	–	–	100 to 1000 nM	< 100 nM
Cc1nn(C)cc1N(Cc1ccc(OC2CC2)cn1)C(=O)c1cc2c(cc1F)nc(N)c1cnc(C)n12 [Example 144]	–	–	1000 to 10000 nM	< 100 nM
COc1ncccc1N(Cc1ccc(C(F)(F)F)cn1)C(=O)c1cc2c(cc1F)nc(N)c1cnc(C)n12 [Example 145]	–	–	100 to 1000 nM	< 100 nM
COc1ccc(N(Cc2ccc(OC3CC3)cn2)C(=O)c2cc3c(cc2F)nc(N)c2cnc(C)n23)cn1 [Example 146]	–	–	1000 to 10000 nM	< 100 nM
COc1ncc(N(Cc2ccc(C(F)(F)F)cn2)C(=O)c2cc3c(cc2F)nc(N)c2cnc(C)n23)cn1 [Example 148]	–	–	1000 to 10000 nM	100 to 1000 nM
Cc1ncc2c(N)nc3cc(F)c(C(=O)N(Cc4ccc(C(F)(F)F)cn4)C4CCOCC4)cc3n12 [Example 149]	–	–	1000 to 10000 nM	100 to 1000 nM
CCn1cc(N(Cc2ccc(C(F)(F)F)cn2)C(=O)c2cc3c(cc2F)nc(N)c2c(C)ncn23)c(C)n1 [Example 150]	–	–	100 to 1000 nM	< 100 nM
Cc1[nH]ncc1N(Cc1ccc(C(F)(F)F)cn1)C(=O)c1cc2c(cc1F)nc(N)c1cnc(C)n12 [Example 151]	–	–	1000 to 10000 nM	100 to 1000 nM
COCCOc1ccc(CN(C(=O)c2cc3c(cc2F)nc(N)c2cnc(C)n23)c2cn(C)nc2C)nc1 [Example 152]	–	–	1000 to 10000 nM	100 to 1000 nM
Cc1ncn2c1c(N)nc1cc(F)c(C(=O)N3[C@H](C)COC[C@@H]3c3ccc(C(F)(F)F)cn3)cc12 [Example 153]	–	–	100 to 1000 nM	< 100 nM
Cc1ncn2c1c(N)nc1cc(F)c(C(=O)N3C(C)COCC3c3ccc(C(F)(F)F)cn3)cc12 (stereo not drawn) [Example 155]	1000 to 10000 nM	< 100 nM	–	–

Compound	IC50 [1]	IC50 [2]	IC50 ([1]; Homo sapiens, HCT-116, 144 h)	IC50 ([2]; HCT116-MTAP null, 144 h)
Cc1ncc2c(N)nc3cc(F)c(C(=O)N(Cc4ccc(C(F)(F)F)cn4)C4CCOC4)cc3n12 (stereo not drawn) [Example 156]	–	–	1000 to 10000 nM	100 to 1000 nM
Cc1nn(C)cc1N(Cc1ccc(OC(F)(F)F)cn1)C(=O)c1cc2c(cc1F)nc(N)c1cnc(C)n12 [Example 157]	–	–	1000 to 10000 nM	< 100 nM
Cc1ncc2c(N)nc3cc(F)c(C(=O)N(Cc4ccc(C(F)(F)F)cn4)C4COC4)cc3n12 [Example 158]	–	–	1000 to 10000 nM	100 to 1000 nM
Cc1ncc2c(N)nc3cc(F)c(C(=O)N4CCC(c5ccc(C(F)(F)F)cn5)C4)cc3n12 (stereo not drawn) [Example 159]	–	–	1000 to 10000 nM	100 to 1000 nM
Cc1nn(C)cc1N(Cc1ccc(OC2CC2)cn1)C(=O)c1cc2c(cc1F)nc(N)c1c(C)ncn12 [Example 161]	–	–	< 100 nM	< 100 nM
Cc1nn(CCO)cc1N(Cc1ccc(C(F)(F)F)cn1)C(=O)c1cc2c(cc1F)nc(N)c1c(C)ncn12 [Example 165]	–	–	1000 to 10000 nM	< 100 nM
CCOc1ccc(CN(C(=O)c2cc3c(cc2F)nc(N)c2c(C)ncn23)c2cn(C)nc2C)nc1 [Example 168]	–	–	< 100 nM	< 100 nM
CCc1nn(C)cc1N(Cc1ccc(C(F)(F)F)cn1)C(=O)c1cc2c(cc1F)nc(N)c1cnc(C)n12 [Example 169]	100 to 1000 nM	< 100 nM	–	–
Cc1nn(C)cc1N(Cc1ccc(OC(F)(F)F)cn1)C(=O)c1cc2c(cc1F)nc(N)c1c(C)ncn12 [Example 170]	–	–	< 100 nM	< 100 nM
CCn1cc(N(Cc2ccc(OC3CC3)cn2)C(=O)c2cc3c(cc2F)nc(N)c2cnc(C)n23)c(C)n1 [Example 171]	–	–	1000 to 10000 nM	< 100 nM
Cc1nn(CC(F)F)cc1N(Cc1ccc(C(F)(F)F)cn1)C(=O)c1cc2c(cc1F)nc(N)c1cnc(C)n12 [Example 173]	–	–	1000 to 10000 nM	< 100 nM
Cc1ncc2c(N)nc3cc(F)c(C(=O)N(Cc4ccc(C(F)(F)F)cn4)c4cn(C)nc4Cl)cc3n12 [Example 175]	–	–	1000 to 10000 nM	< 100 nM
Cc1nn(C(C)C)cc1N(Cc1ccc(C(F)(F)F)cn1)C(=O)c1cc2c(cc1F)nc(N)c1cnc(C)n12 [Example 176]	–	–	1000 to 10000 nM	< 100 nM
CCn1cc(N(Cc2ccc(OC3CC3)cn2)C(=O)c2cc3c(cc2F)nc(N)c2c(C)ncn23)c(C)n1 [Example 177]	–	–	100 to 1000 nM	< 100 nM
Cc1ncc2c(N)nc3cc(F)c(C(=O)N(Cc4ccc(C(F)(F)F)cn4)c4cn(C)nc4C(F)(F)F)cc3n12 [Example 178]	–	–	1000 to 10000 nM	< 100 nM
Cc1cn(C)nc1N(Cc1ccc(C(F)(F)F)cn1)C(=O)c1cc2c(cc1F)nc(N)c1cnc(C)n12 [Example 179]	–	–	1000 to 10000 nM	< 100 nM
Cc1c(N(Cc2ccc(C(F)(F)F)cn2)C(=O)c2cc3c(cc2F)nc(N)c2cnc(C)n23)cnn1CC(F)F [Example 180]	–	–	1000 to 10000 nM	< 100 nM
Cc1nn(C)cc1N(Cc1ccc(C(F)(F)F)nc1)C(=O)c1cc2c(cc1F)nc(N)c1cnc(C)n12 [Example 182]	–	–	1000 to 10000 nM	< 100 nM
Cc1nn(C)cc1N(Cc1ccc(C(F)(F)F)cn1)C(=O)c1cc2c(cn1)nc(N)c1cnc(C)n12 [Example 183]	–	–	1000 to 10000 nM	< 100 nM
CCc1nn(C)cc1N(Cc1ccc(C(F)(F)F)cn1)C(=O)c1cc2c(cc1F)nc(N)c1c(C)ncn12 [Example 184]	–	–	< 100 nM	< 100 nM
Cc1ccc(N(Cc2ccc(C(F)(F)F)cn2)C(=O)c2cc3c(cc2F)nc(N)c2cnc(C)n23)c(C)n1 [Example 187]	–	–	1000 to 10000 nM	< 100 nM
